Measurements from US5216001A, “Indole derivatives” (H. Lunbeck A/S, priority 1990, dated 1993).
Read-outs that look alike come from different tables or passages of the source.

Experiments:
5-HT2 = biological target: T1, 5-HT2 (Rattus norvegicus, UniProt P14842); assay: quipazine inhibition (quipazine-induced head twitches in rats); format: in vivo
T1 construct: Four rats, male Wistar (Mol:Wist) SPF rats weighing 170-240 g; from tissue; host or cells: living male Wistar (Mol:Wist) SPF rats (in vivo, endogenous receptor)
T1 sequence (P14842 whole entry): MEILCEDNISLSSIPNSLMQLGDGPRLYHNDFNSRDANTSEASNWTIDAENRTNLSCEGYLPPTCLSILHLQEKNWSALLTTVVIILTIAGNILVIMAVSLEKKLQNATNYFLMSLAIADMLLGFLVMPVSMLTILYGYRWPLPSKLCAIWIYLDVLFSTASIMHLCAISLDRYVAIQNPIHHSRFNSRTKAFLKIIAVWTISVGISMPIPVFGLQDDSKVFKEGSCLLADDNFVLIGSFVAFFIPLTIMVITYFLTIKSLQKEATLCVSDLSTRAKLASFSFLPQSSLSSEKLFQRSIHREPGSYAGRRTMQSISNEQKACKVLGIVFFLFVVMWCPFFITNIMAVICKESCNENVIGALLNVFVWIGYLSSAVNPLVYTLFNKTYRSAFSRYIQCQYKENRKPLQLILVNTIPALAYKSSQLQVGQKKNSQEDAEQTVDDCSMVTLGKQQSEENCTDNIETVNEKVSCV
Protocol: Quipazine is a 5-HT2 agonist, which induces head twitches in rats. The test is a test for 5-HT2 -antagonistic effect testing the ability to inhibit head twitches. The method and test results for some reference substances are published by Arnt et al. (Drug Development Research, 16, 59-70, 1989).
Test substance is injected s.c. 2 hrs before or p.o. 24 hrs before quipazine administration (6.8 mg/kg, s.c., dimaleate). Four rats, male Wistar (Mol:Wist) SPF rats weighing 170-240 g, are used at each dose level. A control group is included each test day. By repeated testing (2, 24 hrs) the control group is the same, however. After quipazine administration the rats are individually placed in the observation cages and head twitches are counted in an observation period of 30-40 min. after injection of quipazine.
Total number of head twitches in each group is calculated and the result for each dose is expressed as per cent of the response in the control group. ED50 values are calculated by log-probit analysis. The test must be repeated if the average number of head twitches is lower than 9 in the control group.

α1 adrenoceptors = assay: inhibition of 3H-prazosin binding to α1 adrenoceptors in rat brain in vitro; details: 3H-prazosin 0.25 nM, rat brain membranes, read-out: Binding IC50, 3H Praz.
dopamine D-2 receptors = biological target: T2, dopamine D-2 receptors (Rattus norvegicus, UniProt P61169); assay: inhibition of 3H-spiperone binding to dopamine D-2 receptors in rat corpus striatum in vitro; details: 3H-spiperone 0.5 nM, rat corpus striatum membranes, in vitro; read-out: Binding IC50, 3H Spi.
T2 construct: striatal tissue is dissected and weighed; from tissue; host or cells: corpus striatum membranes of male Wistar rats
T2 sequence (P61169 whole entry): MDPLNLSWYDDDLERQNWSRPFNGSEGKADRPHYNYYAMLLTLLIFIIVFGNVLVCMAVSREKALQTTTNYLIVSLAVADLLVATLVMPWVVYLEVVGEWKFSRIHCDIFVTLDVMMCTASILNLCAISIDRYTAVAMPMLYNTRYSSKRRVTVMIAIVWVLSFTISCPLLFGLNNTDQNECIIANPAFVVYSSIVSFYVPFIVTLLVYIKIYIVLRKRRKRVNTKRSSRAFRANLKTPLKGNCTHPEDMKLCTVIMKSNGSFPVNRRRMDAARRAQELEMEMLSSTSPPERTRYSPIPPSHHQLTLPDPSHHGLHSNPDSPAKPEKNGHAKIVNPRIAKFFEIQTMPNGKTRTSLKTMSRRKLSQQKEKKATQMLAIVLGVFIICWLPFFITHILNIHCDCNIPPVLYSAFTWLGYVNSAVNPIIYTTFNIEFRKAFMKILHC
In short: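 Rat striatal membranes from male Wistar rats in 50 mM K-phosphate pH 7.4 incubated 10 min at 37 °C with 0.5 nM ³H-spiperone and five drug concentrations over 3 decades. Bound radioactivity collected by filtration and counted by scintillation; nonspecific binding defined with 10 μM 6,7-ADTN.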

[1] = po, 24 h, read-out: Quipazine inhibition ED50, 24h (po)
[2] = sc, 2 h, read-out: Quipazine inhibition ED50, 2h (sc)

SMILES | ED50 (5-HT2; [1]) [µmol/kg] | ED50 (5-HT2; [2]) [µmol/kg] | IC50 (α1 adrenoceptors) [µM] | IC50 (dopamine D-2 receptors) [µM] | Quipazine inhibition ED50, 2h (sc) (5-HT2; s.c., 2 h before quipazine) [µmol/kg]
CC(C)N1CCN(CCN2CCC(c3cn(-c4ccc(F)cc4)c4cc(Cl)ccc34)CC2)C1=O [Compound 4a, 6-chloro-1-(4-fluorophenyl)-3-[1-[2-[3-(2-propyl)-2-imidazolidinon-1-yl]ethyl]-4-piperidyl]-1H-indole] | 0.06 | 0.11 | 0.07 | 0.13 | 
Cc1ccc2c(C3CCN(CCN4CCNC4=O)CC3)cn(-c3ccc(F)cc3)c2c1 [Compound 4g, 1-(4-fluorophenyl)-3-[1-[2-(2-imidazolidinon-1-yl)ethyl]-4-piperidyl]-6-methyl-1H-indole] | 0.04 | 0.02 | 0.024 | 0.27 | 
Cc1ccc2c(C3CCN(CCN4CCN(C(C)C)C4=O)CC3)cn(-c3ccc(F)cc3)c2c1 [Compound 5a, 1-(4-fluorophenyl)-6-methyl-3-[1-[2-[3-(2-propyl)-2-imidazolidinon-1-yl]ethyl]-4-piperidyl]-1H-indole] | 0.11 | 0.04 | 0.085 | 0.19 | 
OCCN1CCN(c2cn(-c3ccc(F)cc3)c3ccc(C(F)(F)F)cc23)CC1 [Lu 21-152, 1-(4-fluorophenyl)-3-[4-(2-hydroxyethyl)-1-piperazinyl]-5-trifluoromethyl-1H-indole, reference compound] |  |  | 0.0076 | 0.0026 | 0.02
